Laboratory results taken from patent US12310967B2, “Compositions and methods of treatment for neurological disorders comprising motor neuron diseases” (Gliapharm SA, priority 2017, dated 2025).
Like-named read-outs stand apart in the source and are kept apart here.

Tested on: primary astrocytes
Assay: Extracellular lactate quantification
Assay type: cell-based, mouse
Settings: Appendix II; for Score Lact.: CDC54K library; for EC50: lactate secretion, read-out: EC50
Experimental: Secretion of L-lactate was determined in the extracellular medium of 96-well plated astrocytes after 90 min stimulation (at 37° C., in 5% CO2/95% air conditions) with the drug of interest. The stimulation medium was composed of D5030 medium (completed with D-glucose 5 mM and 44 mM sodium bicarbonate) for 90 min in concentrations ranging from 0 to 100 μM.
Briefly, 200 μl of a Glycine (Sigma)-Semicarbazide (Acros) 0.2M pH 10 buffer containing 3 mM NAD (Roche) and LDH 14 U/ml (Roche) was added to each well of a 96-well plate containing 30 μl aliquots complemented with 20 μl fresh complete D5030 medium. Samples were incubated at 37° C. for 1 h. After samples cooled down at room temperature, the fluorescence intensity (340 nm excitation/450 nm emission) that represents the amount of NADH produced was measured, and lactate concentration values were determined from a standard curve of L-lactate.
Statistical analysis consisted in ANOVA followed by Fisher LSD post-hoc test for pair-wise comparisons.
Levels of lactate secreted by astrocytes were measured in the extracellular medium at 90 min after stimulation with hits (molecules) from the CDC54K library.

Cc1ccc(OCCn2c(C)nc3ccccc32)cc1 [T5444083] was tested, and the “Score Lact.” value was 0.51.

In the case of CN(C)S(=O)(=O)c1cccc(C(=O)Nc2ccc(Oc3ccccc3)cc2)c1 [T5393500], the “Score Lact.” value is reported as 0.59.

With CCc1ccc(S(=O)(=O)Nc2c(C)nn(C)c2C)cc1 [T5753165] the “Score Lact.” value was 0.54.

With CCCC(=O)NC1=NC(c2ccc3c(c2)CCO3)=CC1 [T5691896] the “Score Lact.” value was 0.38 and the EC50 (Mus musculus, Astrocyte) was 5.21 µM.

CC(=O)Nc1cccc(NC(=O)CCc2nc(C)c(C)n2C2CCCC2)c1 [T5788339] was tested, and the “Score Lact.” value was 0.75 and the EC50 (Mus musculus, Astrocyte) was 3.9 µM.

With CN1c2ccccc2C(=O)NC1c1ccc(Cl)c(Cl)c1 (stereo not shown) [T5389517] the “Score Lact.” value was 0.33.

In the case of N#Cc1cc(C(=O)c2cc(I)ccc2O)cn(-c2ccc(I)c(Cl)c2)c1=O [T0516-6894], the “Score Lact.” value is reported as 0.38 and the EC50 (Mus musculus, Astrocyte) is reported as 8.21 µM.

CCc1cc2c(NC3CCCC3)ncnc2s1 [887-0183] was tested, and the “Score Lact.” value was 0.66.

In the case of CCN(CC)C(=O)c1nc(CNC(=O)c2ccc3ccccc3n2)oc1C [T993-1787], the “Score Lact.” value is reported as 0.36.

With O=C(O)C(=O)O.c1ccc(Cc2ccc(OCCn3ccnc3)cc2)cc1 [T5821723] the “Score Lact.” value was 0.73.

In the case of CCOc1ccc(C2=CCc3c2ncn(Cc2ccncc2)c3=O)cc1OCC [L115-0403], the “Score Lact.” value is reported as 0.81 and the EC50 (Mus musculus, Astrocyte) is reported as 3.28 µM.

For CC1=C(C)c2c(N)nc(CCc3nc4ccccc4[nH]3)nc2C1 [T5719257], the “Score Lact.” value was 0.74 and the EC50 (Mus musculus, Astrocyte) was 2.85 µM.

With CCc1c(C)nc2ncnn2c1NC1CCCCC1 [Z606-8352] the “Score Lact.” value was 0.83.

For CC(=O)N1CC(C)(C)c2cc(S(=O)(=O)NCc3ccc(C)cc3)ccc21 [L302-0069], the “Score Lact.” value was 0.55.

With Br.CCOc1ccc(C2(O)C(C)C3=C(CCN3)N2c2ccc(OC)cc2)cc1 (stereo not shown) [T0500-6629] the “Score Lact.” value was 0.61 and the EC50 (Mus musculus, Astrocyte) was 2.61 µM.

With COc1ccc(S(=O)(=O)Nc2ccc(N3CCCCS3(=O)=O)cc2)cc1F [F2794-0128] the “Score Lact.” value was 0.62 and the EC50 was 9.85 µM.

CCc1ccc(NC(=O)Cc2cn(C)c3ncccc23)cc1 [M508-0370] was tested, and the “Score Lact.” value was 0.60.

COc1cccc(C(CNc2nc(C(C)(C)C)nc3ccccc23)N(C)C)c1 (stereo not shown) [T5800607] was tested, and the “Score Lact.” value was 063 and the EC50 (Mus musculus, Astrocyte) was 5.87 µM.

For CCN1C(=O)c2cccc3c(S(=O)(=O)Nc4ccc(OC)cc4OC)ccc1c23 [T5477696], the “Score Lact.” value was 0.44.

Cc1c(O)ccc2c(CN(C)CC3COc4ccccc4O3)cc(=O)oc12 (stereo not shown) [T5494352] was tested, and the “Score Lact.” value was 0.44.

With CCCCN1C(=O)C(C)(C(=O)Nc2ccc(OCC)cc2)Oc2cccnc21 (stereo not shown) [P621-1364] the “Score Lact.” value was 0.43.

For COc1ccc(CCNc2ncnc3c2cnn3C)cc1 [K405-2595], the “Score Lact.” value was 0.70.

For CCc1cccc(NS(=O)(=O)c2ccc3c(c2)CCCN3C(C)=O)c1 [G855-0143], the “Score Lact.” value was 0.56.

With Cc1ccc(-c2c[nH]c(NC(=O)c3ccncc3)n2)cc1[N+](=O)[O-] [T5694329] the “Score Lact.” value was 0.47 and the EC50 (Mus musculus, Astrocyte) was 1.59 µM.

For CN(C)c1ccc2ncnc(N3CCN(C(=O)c4ccc(Cl)cc4)CC3)c2c1 [M381-0730], the “Score Lact.” value was 0.57.

With O=S(=O)(Nc1ccc(S(=O)(=O)C(F)F)cc1)c1ccc(Cl)cc1 [T5311200] the “Score Lact.” value was 0.56.

In the case of Cn1nc(C(=O)Nc2ccc(Oc3ccccc3Cl)cc2)ccc1=O [T5813085], the “Score Lact.” value is reported as 1.01.

With O=c1[nH]nc(SCCOc2ccc(Br)cc2)n1C1CC1 [T533260] the “Score Lact.” value was 0.53 and the EC50 (Mus musculus, Astrocyte) was 6.84 µM.

CCOc1ccc(CN(C)CC(=O)Nc2cccc(C)c2)cc1OC [T5318833] was tested, and the “Score Lact.” value was 0.42.

In the case of COc1ccccc1NC(=O)CO/N=C(/N)c1cccc(C(C)(F)F)c1 [T5770640], the “Score Lact.” value is reported as 0.55 and the EC50 (Mus musculus, Astrocyte) is reported as 4.86 µM.

In the case of COc1cc(C)c(NC(=O)Cc2ccc(C)c(C)c2)cc1OC [T5783794], the “Score Lact.” value is reported as 0.44 and the EC50 (Mus musculus, Astrocyte) is reported as 6.11 µM.

In the case of CC(=O)c1c(C)[nH]c(C(=O)C(C)N(C)Cc2ccc3c(c2)OCO3)c1C (stereo not shown) [T5798761], the “Score Lact.” value is reported as 0.73.

Cc1noc2ncnc(NC(C)CCc3ccccc3)c12 (stereo not shown) [E944-0182] was tested, and the “Score Lact.” value was 0.55.

With CCNc1cc(C)nc(Nc2ccc(NC(=O)C3=CC=CC3)cc2)n1 [G869-0071] the “Score Lact.” value was 0.63 and the EC50 (Mus musculus, Astrocyte) was 4.9 µM.

For CCNc1cc(C)nc(Nc2ccc(NC(=O)Cc3ccccc3)cc2)n1 [G869-0064], the “Score Lact.” value was 0.54.

With Cc1ccc(S(=O)(=O)Nc2ccc(F)c(F)c2F)cc1[N+](=O)[O-] [T5729557] the “Score Lact.” value was 0.88.

In the case of Cc1cc(C)cc(NC(=O)CN2CCCC2c2ccc3c(c2)OCCCO3)c1 (stereo not shown) [T5993799], the “Score Lact.” value is reported as 1.14 and the EC50 (Mus musculus, Astrocyte) is reported as 8.81 µM.

Cc1[nH]c2nc(CNc3nc4ccccc4c(=O)n3C)[nH]c(=O)c2c1C [T0517-2783] was tested, and the “Score Lact.” value was 0.46 and the EC50 (Mus musculus, Astrocyte) was 3.84 µM.

With C1=C(c2ccccc2)c2c(ncnc2NCCN2CCOCC2)C1.O=C(O)C(=O)O.O=C(O)C(=O)O [T0513-0213] the “Score Lact.” value was 0.30 and the EC50 (Mus musculus, Astrocyte) was 3.99 µM.

For CCc1ccccc1NC(=O)CN(C)c1nccc2c1oc1ccccc12 [T5712071], the “Score Lact.” value was 0.8 and the EC50 (Mus musculus, Astrocyte) was 1.14 µM.

With Cc1nc2ccccc2n1CCOc1ccc(Br)cc1 [T0505-4087] the “Score Lact.” value was 0.64.

For Cc1cccc(NS(=O)(=O)c2ccc(F)c(Cl)c2)c1 [F3394-1364], the “Score Lact.” value was 0.33 and the EC50 was 5.87 µM.

For COc1ccc(NS(=O)(=O)c2ccc(NC(=O)C3CCCO3)cc2)cc1 (stereo not shown) [T5329723], the “Score Lact.” value was 0.53.

With CC(=O)N1CCc2cc(S(=O)(=O)NCC(C)c3ccccc3)ccc21 (stereo not shown) [T5707230] the “Score Lact.” value was 0.67 and the EC50 was 4.88 µM.

With Cc1nnsc1C(=O)N1CCN(C(C)C)CC1 [Z606-5341] the “Score Lact.” value was 0.36.

With CC(=O)c1c(C)[nH]c(C(=O)N(C)Cc2ccc(C)cc2C)c1C [T5705522] the “Score Lact.” value was 0.85.

With Cc1cccc(NC(=O)NC2CCN(c3nc4ccccc4n(C)c3=O)CC2)c1 [L932-0267] the “Score Lact.” value was 0.53 and the EC50 (Mus musculus, Astrocyte) was 4.64 µM.

For COc1ccc(C(C)NC(=O)c2cc(=O)c3ccccc3o2)cc1I (stereo not shown) [T5710343], the “Score Lact.” value was 0.67 and the EC50 (Mus musculus, Astrocyte) was 6.31 µM.

In the case of C1=Cc2ncnc(NCc3ccc4c(c3)OCO4)c2C1 [T5787526], the “Score Lact.” value is reported as 0.71 and the EC50 (Mus musculus, Astrocyte) is reported as 3.89 µM.

In the case of Cc1cccc(NC(=O)c2ccc(S(=O)(=O)Nc3ccccc3)cc2)n1 [T6125251], the “Score Lact.” value is reported as 0.51.

With CC(=O)N1CCCc2cc(S(=O)(=O)Nc3ccc(OC(F)(F)F)cc3)ccc21 [G855-0183] the “Score Lact.” value was 0.54.

For CC(C)(C)c1cccc(CNc2ncnc3[nH]ncc23)c1 [F5285-0069], the “Score Lact.” value was 0.36 and the EC50 (Mus musculus, Astrocyte) was 6.29 µM.

In the case of CC(=O)N1CC(C)(C)c2cc(S(=O)(=O)Nc3ccc(I)cc3C)ccc21 [L302-0181], the “Score Lact.” value is reported as 0.52 and the EC50 (Mus musculus, Astrocyte) is reported as 5.05 µM.

In the case of COc1ccc(NS(=O)(=O)c2cccc(NC(=O)c3ccc[nH]3)c2)cc1 [T0517-4117], the “Score Lact.” value is reported as 0.91 and the EC50 (Mus musculus, Astrocyte) is reported as 5.43 µM.

In the case of Cc1nc2ncnn2c(NC2CCCCCC2)c1C [Z606-8287], the “Score Lact.” value is reported as 0.57.

With Cc1nc2ncnn2c(NCc2ccco2)c1C [Z606-8298] the “Score Lact.” value was 0.38.

In the case of CCCCn1c(CN(C)Cc2ccccc2)nc2c1c(=O)n(C)c(=O)n2C [T5788545], the “Score Lact.” value is reported as 0.45.

With C1CCCC(NC2=NCCCNC23CCCCC3)CC1 [Z076-0028] the “Score Lact.” value was 0.56.

In the case of COc1ccc(CC(=O)Nc2ccc(C)c(C)c2)cc1OC [Y030-2832], the “Score Lact.” value is reported as 0.34.

C1=Cc2ncnc(NCc3ccccc3CN3CCOCC3)c2C1 [T5790476] was tested, and the “Score Lact.” value was 0.79 and the EC50 (Mus musculus, Astrocyte) was 3.98 µM.

COc1ccc(-c2csc(N3C(=O)CC4CS(=O)(=O)CC43)n2)cc1 (stereo not shown) [T5832764] was tested, and the “Score Lact.” value was 0.60 and the EC50 was 4.02 µM.
